Data from article PMC9950143 (Scientific Reports, 2023).
Where two headings read alike, the source gives them in different places.

Columns and labels:
HCV GT2a replicon = assay: HCV subgenomic replicon Renilla luciferase assay, Huh-7-lunet; type: cell-based, hepatitis C virus; conditions: Hepatitis C (2a) [Huh-7-lunet]
MARV Ci67 [1] = assay: organism not typed; type: cell-based, Marburg virus; conditions: HeLa; n = 9; read-out: RDV activity against MARV EC50
MARV Ci67 [2] = type: cell-based, Marburg virus
Enterovirus 68D = assay: CPE assay, RD cells; type: cell-based; conditions: Enterovirus 68D [RD]
Sudan virus (Yambio) = assay: microbe, parasite or virus in culture; type: cell-based
Marburg (Kabale) = assay: microbe, parasite or virus in culture; type: cell-based, Marburg virus
[3] = tested on: Dengue 1 virus (Djibouti); assay: microbe, parasite or virus in culture; type: cell-based
Dengue 3 virus (H87) = assay: microbe, parasite or virus in culture; type: cell-based
Marburg virus (Ci67) [4] = conditions: read-out: Previously reported activity EC50; cited from earlier work
Rhinovirus 16 = assay: CPE assay, H1 HeLa cells; type: cell-based; conditions: Rhinovirus 16 [H1 HeLa]
[5] = Compound cytotoxicity by MTS dye reduction; conditions: dog, MDCK cells
MDCK cells = assay: Compound cytotoxicity by MTS dye reduction; conditions: MDCK; listed as Influenza B (B/Brisbane/60/2008)
SUDV Boniface = type: cell-based, Sudan virus; conditions: read-out: RDV EC50
Marburg (Angola) = assay: microbe, parasite or virus in culture; type: cell-based, Marburg virus
[6] = tested on: Dengue 4 virus (Dakar_HD_34460); assay: microbe, parasite or virus in culture; type: cell-based
[7] = tested on: Dengue 2 virus (New Guinea C); assay: NanoLuc reporter virus infection assay, Huh-7; type: cell-based; conditions: Dengue 2 virus (New Guinea C) [Huh-7]
Marburg (Drandema) = assay: microbe, parasite or virus in culture; type: cell-based, Marburg virus
Zika virus (Dakar) = assay: NanoLuc reporter virus infection assay, Huh-7; type: cell-based; conditions: Zika virus (Dakar) [Huh-7]
Marburg virus (Ci67) [8] = assay: microbe, parasite or virus in culture; type: cell-based
Rhinovirus A2 = assay: CPE assay, H1 HeLa cells; type: cell-based
Dengue 4 virus (MY01) = assay: microbe, parasite or virus in culture; type: cell-based; conditions: Dengue 4 virus (MY01) [Huh-7]
[9] = tested on: hepatitis B virus (HBV; AD38 strain); assay: microbe, parasite or virus in culture; type: cell-based; conditions: Hepatocyte, read-out: Antiviral activity EC50
Dengue 3 virus (VN32) = assay: microbe, parasite or virus in culture; type: cell-based; conditions: Dengue 3 virus (VN32) [Huh-7]
[10] = Cytotoxicity, CellTiter-Glo, 96 h (229E protocol); conditions: human, H1 HeLa cells
[11] = tested on: Human coronavirus 229E (HCoV-229E); assay: microbe, parasite or virus in culture; type: cell-based
Zika virus (PRVABC59) = assay: NanoLuc reporter virus infection assay, Huh-7; type: cell-based; conditions: Zika virus (PRVABC59) [Huh-7]
Ebola virus = conditions: read-out: Previously reported activity EC50; cited from earlier work
HCV GT1b replicon = assay: HCV subgenomic replicon Renilla luciferase assay, Huh-7-lunet; type: cell-based, hepatitis C virus; conditions: Hepatitis C (1b) [Huh-7-lunet]
Ebola virus (Makona) = assay: microbe, parasite or virus in culture; type: cell-based
[12] = tested on: Influenza A (A/California/07/2009); assay: CPE assay, MDCK cells; type: cell-based; conditions: Influenza A virus; Influenza A (A/California/07/2009) [MDCK]; read-out: Antiviral activity EC50
[13] = tested on: all MARV and Ravn virus (RAVV) isolates tested; assay: microbe, parasite or virus in culture; type: cell-based, Marburg virus; conditions: Filoviridae, HeLa, read-out: EC50 values against all MARV and RAVV isolates tested
all SUDV isolates tested = assay: microbe, parasite or virus in culture; type: cell-based; conditions: Sudan ebolavirus, HeLa, read-out: EC50 values against all SUDV isolates tested
[14] = tested on: rhinoviruses of serotypes A and B; assay: CPE assay, H1 HeLa cells (summary over rhinoviruses); type: cell-based; conditions: Enterovirus, read-out: EC50 range against rhinoviruses of serotypes A and B
[15] = tested on: hepatitis B virus (HBV; AD38 strain); assay: Anti-HBV assay (HBsAg), HepG2-NTCP cells; type: cell-based; conditions: HepG2 or PHH cells
Sudan virus (Gulu) = assay: microbe, parasite or virus in culture; type: cell-based
[16] = n = 1, read-out: Antiviral activity EC50
[17] = Sudan ebolavirus, HeLa, n = 1, read-out: Antiviral activity EC50
[18] = Filoviridae, HeLa, read-out: Antiviral activity EC50
[19] = Dengue virus, Huh-7, read-out: Antiviral activity EC50

With CCC(CC)COC(=O)[C@H](C)N[P@](=O)(OC[C@H]1O[C@@](C#N)(c2ccc3c(N)ncnn23)[C@H](O)[C@@H]1O)Oc1ccccc1 [RDV, Remdesivir] the “Selectivity index (SI) = CC50/EC50” value (HCV GT2a replicon) was 236, the EC50 (HCV GT2a replicon; Hepatitis C virus, GT2A, read-out: Antiviral activity EC50) was 72 ± 13 nM and the EC50 (MARV Ci67 [1]) was 109 nM. The “maximum fold reduction of RDV EC50 in the presence of favipiravir” value (MARV Ci67 [2]) was “≥ tenfold”, the “Selectivity index (SI) = CC50/EC50” value (Enterovirus 68D) was 56 and the EC50 (Enterovirus 68D; [16]) was 50 nM. The “Selectivity index (SI) = CC50/EC50” value (Sudan virus (Yambio)) was over 19, the EC50 (Sudan virus (Yambio); [17]) was 130 nM and the “Selectivity index (SI) = CC50/EC50” value (Marburg (Kabale)) was over 63. The EC50 (Marburg (Kabale); [18]) was 40 ± 2 nM, the “Selectivity index (SI) = CC50/EC50” value [3] was 108 and the EC50 [3, 19] was 310 ± 90 nM. The “Selectivity index (SI) = CC50/EC50” value (Dengue 3 virus (H87)) was 196, the EC50 (Dengue 3 virus (H87); [19]) was 170 ± 70 nM and the EC50 (Marburg virus (Ci67) [4]) was 10 to 20 nM. For the same compound, the EC50 (Rhinovirus 16; Enterovirus, n = 1, read-out: Antiviral activity EC50) was 750 nM, the “Selectivity index (SI) = CC50/EC50” value (Rhinovirus 16) was over 13 and the CC50 [5] was over 100000 nM. The CC50 (MDCK cells) was over 100000 nM, the EC50 (SUDV Boniface) was 212 nM and the “Selectivity index (SI) = CC50/EC50” value (Marburg (Angola)) was over 56. For the same compound, the EC50 (Marburg (Angola); [18]) was 45 ± 30 nM, the “Selectivity index (SI) = CC50/EC50” value [6] was 176 and the EC50 [6, 19] was 190 ± 50 nM. The “Selectivity index (SI) = CC50/EC50” value [7] was 145, the EC50 [7, 16] was 230 nM and the “Selectivity index (SI) = CC50/EC50” value (Marburg (Drandema)) was over 74. The EC50 (Marburg (Drandema); [18]) was 34 ± 4 nM, the “Selectivity index (SI) = CC50/EC50” value (Zika virus (Dakar)) was 90 and the EC50 (Zika virus (Dakar); [16]) was 370 nM. For the same compound, the “Selectivity index (SI) = CC50/EC50” value (Marburg virus (Ci67) [8]) was over 83, the EC50 (Marburg virus (Ci67) [8]; [18]) was 30 ± 2 nM and the “Selectivity index (SI) = CC50/EC50” value (Rhinovirus A2) was over 22. The EC50 (Rhinovirus A2; Rhinovirus A, n = 1, read-out: Antiviral activity EC50) was 450 nM, the “Selectivity index (SI) = CC50/EC50” value (Dengue 4 virus (MY01)) was 186 and the EC50 (Dengue 4 virus (MY01); [16]) was 180 nM. The EC50 [9] was over 1000 nM, the “Selectivity index (SI) = CC50/EC50” value (Dengue 3 virus (VN32)) was 278 and the EC50 (Dengue 3 virus (VN32); [16]) was 120 nM. The CC50 at 96 h [10] was over 50000 nM, the “Selectivity index (SI) = CC50/EC50” value [11] was over 538 and the EC50 ([11]; Human coronavirus 229E, H1-HeLa, read-out: Antiviral activity EC50) was 93 ± 53 nM. For the same compound, the “Selectivity index (SI) = CC50/EC50” value (Zika virus (PRVABC59)) was 128, the EC50 (Zika virus (PRVABC59); [16]) was 260 nM and the EC50 (Ebola virus) was 3 to 140 nM. The “Selectivity index (SI) = CC50/EC50” value (HCV GT1b replicon) was over 225, the EC50 (HCV GT1b replicon; Hepatitis C virus, GT1B, read-out: Antiviral activity EC50) was 89 ± 47 nM and the “Selectivity index (SI) = CC50/EC50” value (Ebola virus (Makona)) was over 32. The EC50 (Ebola virus (Makona); Zaire ebolavirus, HeLa, read-out: Antiviral activity EC50) was 78 ± 4 nM, the EC50 [12] was over 50000 nM and the EC50 [13] was 24 to 68 nM. The EC50 (all SUDV isolates tested) was 120 to 240 nM, the EC50 [14] was 385 to 750 nM and the “selectivity index of RDV against HBV” value [15] was about 1. The “Selectivity index (SI) = CC50/EC50” value (Sudan virus (Gulu)) was over 192 and the EC50 (Sudan virus (Gulu); [17]) was 60 nM.
